Results published in patent US12258327B2, “5-membered heteroaryl-containing aminopyridine compounds as EGFR inhibitors” (YUHAN CORPORATION, priority 2021, dated 2025).
pIC50: −log10 of the molar value. Where two headings read alike, the source gives them in different places.

Key:
EGFR del19/T790M/C797S = EGFR del19/T790M/C797S (Homo sapiens, UniProt P00533, C797S/DEL746-750/T790M); assay: Biochemical EGFR kinase assay (Lance Ultra TR-FRET), triple mutant del19/T790M/C797S
Procedure, shortened: (§1)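 In this biochemical assay, phosphorylation after a one-hour room-temperature reaction was detected with europium-labelled anti-phosphopeptide antibody at 2 nM final concentration.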

EGFR del19/C797S = EGFR del19/C797S (Homo sapiens, UniProt P00533, C797S/DEL746-750); assay: Biochemical EGFR kinase assay (Lance Ultra TR-FRET), double mutant del19/C797S
Procedure, shortened: as §1

EGFR wildtype (WT) = EGFR wildtype (WT) (Homo sapiens, UniProt P00533); assay: Biochemical EGFR kinase assay (Lance Ultra TR-FRET), wildtype
Procedure, shortened: as §1

EGFR L858R/C797S = EGFR L858R/C797S (Homo sapiens, UniProt P00533, C797S/L858R); assay: Biochemical EGFR kinase assay (Lance Ultra TR-FRET), double mutant L858R/C797S
Procedure, shortened: as §1

EGFR L858R/T790M/C797S = EGFR L858R/T790M/C797S (Homo sapiens, UniProt P00533, C797S/L858R/T790M); assay: Biochemical EGFR kinase assay (Lance Ultra TR-FRET), triple mutant L858R/T790M/C797S
Procedure, shortened: as §1

[1] = IC50 del19/T790M/C797S (nM) 100 μM ATP, 100 μM ATP
[2] = Km ATP, read-out: IC50 del19/T790M/C797S (nM) Km ATP
[3] = IC50 del19/C797S (nM) 100 μM ATP, 100 μM ATP
[4] = Km ATP, read-out: IC50 del19/C797S (nM) Km ATP
[5] = IC50 WT (nM) 100 μM ATP, 100 μM ATP
[6] = Km ATP, read-out: IC50 WT (nM) Km ATP
[7] = Km ATP, read-out: IC50 L858R/C797S (nM) Km ATP
[8] = IC50 L858R/T790M/C797S (nM) 100 μM ATP, 100 μM ATP
[9] = Km ATP, read-out: IC50 L858R/T790M/C797S (nM) Km ATP
[10] = IC50 L858R/C797S (nM) 100 μM ATP, 100 μM ATP

EGFR del19/C797S, sequence (P00533 with tags, fused parts or gaps DEL746-750/C797S): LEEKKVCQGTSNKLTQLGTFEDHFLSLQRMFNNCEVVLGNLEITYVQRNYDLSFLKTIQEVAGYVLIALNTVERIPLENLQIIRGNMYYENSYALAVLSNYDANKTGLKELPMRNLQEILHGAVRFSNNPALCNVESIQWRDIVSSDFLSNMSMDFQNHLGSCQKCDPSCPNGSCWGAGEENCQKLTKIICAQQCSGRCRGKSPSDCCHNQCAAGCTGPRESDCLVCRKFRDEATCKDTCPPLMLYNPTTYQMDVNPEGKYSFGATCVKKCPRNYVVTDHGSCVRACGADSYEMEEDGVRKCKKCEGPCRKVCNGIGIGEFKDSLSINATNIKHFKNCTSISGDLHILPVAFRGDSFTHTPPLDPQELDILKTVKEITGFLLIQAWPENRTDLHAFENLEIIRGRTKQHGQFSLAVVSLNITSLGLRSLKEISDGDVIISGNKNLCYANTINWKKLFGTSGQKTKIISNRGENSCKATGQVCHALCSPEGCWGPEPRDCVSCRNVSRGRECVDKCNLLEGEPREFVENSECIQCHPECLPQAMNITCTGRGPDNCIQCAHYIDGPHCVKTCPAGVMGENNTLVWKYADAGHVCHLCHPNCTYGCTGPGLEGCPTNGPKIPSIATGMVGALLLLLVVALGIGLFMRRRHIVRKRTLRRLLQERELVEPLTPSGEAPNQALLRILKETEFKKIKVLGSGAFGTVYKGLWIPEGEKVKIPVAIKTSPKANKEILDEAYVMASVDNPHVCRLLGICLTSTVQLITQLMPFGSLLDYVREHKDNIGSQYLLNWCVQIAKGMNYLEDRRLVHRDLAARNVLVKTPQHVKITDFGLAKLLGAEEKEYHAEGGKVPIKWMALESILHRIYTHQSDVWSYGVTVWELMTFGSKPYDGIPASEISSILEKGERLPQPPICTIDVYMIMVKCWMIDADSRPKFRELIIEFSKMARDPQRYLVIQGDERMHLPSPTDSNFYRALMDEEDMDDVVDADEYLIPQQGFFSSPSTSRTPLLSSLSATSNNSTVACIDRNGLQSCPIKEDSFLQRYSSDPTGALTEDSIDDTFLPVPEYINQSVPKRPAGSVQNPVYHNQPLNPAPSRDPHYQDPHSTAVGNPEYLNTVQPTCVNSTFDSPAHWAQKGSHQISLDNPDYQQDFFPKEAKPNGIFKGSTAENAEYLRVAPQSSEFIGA
EGFR del19/T790M/C797S, sequence (P00533 with tags, fused parts or gaps DEL746-750/T790M/C797S): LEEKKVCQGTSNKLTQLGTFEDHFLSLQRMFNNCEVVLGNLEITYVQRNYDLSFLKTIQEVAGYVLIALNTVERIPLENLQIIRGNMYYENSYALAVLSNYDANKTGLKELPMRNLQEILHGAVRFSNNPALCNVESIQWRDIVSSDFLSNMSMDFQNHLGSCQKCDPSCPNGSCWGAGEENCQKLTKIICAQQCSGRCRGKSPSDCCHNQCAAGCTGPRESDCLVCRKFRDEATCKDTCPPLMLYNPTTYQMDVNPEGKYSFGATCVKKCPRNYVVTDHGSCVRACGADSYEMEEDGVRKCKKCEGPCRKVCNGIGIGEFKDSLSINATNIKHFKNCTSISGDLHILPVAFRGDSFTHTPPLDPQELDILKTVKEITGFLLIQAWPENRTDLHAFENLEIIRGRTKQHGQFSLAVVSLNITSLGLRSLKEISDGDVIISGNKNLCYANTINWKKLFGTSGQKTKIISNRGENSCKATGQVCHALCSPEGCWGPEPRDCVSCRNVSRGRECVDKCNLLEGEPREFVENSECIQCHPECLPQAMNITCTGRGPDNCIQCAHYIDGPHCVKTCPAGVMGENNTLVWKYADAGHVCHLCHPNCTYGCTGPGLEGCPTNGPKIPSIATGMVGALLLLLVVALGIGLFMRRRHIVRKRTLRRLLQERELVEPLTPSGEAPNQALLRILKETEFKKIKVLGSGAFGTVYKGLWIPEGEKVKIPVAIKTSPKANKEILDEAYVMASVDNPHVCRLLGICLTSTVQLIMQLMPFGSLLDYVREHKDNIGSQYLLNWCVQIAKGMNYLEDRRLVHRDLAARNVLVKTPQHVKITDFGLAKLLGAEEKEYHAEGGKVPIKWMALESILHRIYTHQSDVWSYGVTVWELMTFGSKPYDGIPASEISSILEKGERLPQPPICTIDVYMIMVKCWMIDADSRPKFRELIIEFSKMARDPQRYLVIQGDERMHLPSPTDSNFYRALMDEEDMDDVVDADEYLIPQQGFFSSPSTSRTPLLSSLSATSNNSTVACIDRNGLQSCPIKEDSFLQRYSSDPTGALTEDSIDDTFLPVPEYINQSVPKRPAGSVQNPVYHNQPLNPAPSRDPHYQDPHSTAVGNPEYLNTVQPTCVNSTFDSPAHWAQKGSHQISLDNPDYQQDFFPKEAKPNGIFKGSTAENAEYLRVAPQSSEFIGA
EGFR wildtype (WT), sequence (P00533 25-1210): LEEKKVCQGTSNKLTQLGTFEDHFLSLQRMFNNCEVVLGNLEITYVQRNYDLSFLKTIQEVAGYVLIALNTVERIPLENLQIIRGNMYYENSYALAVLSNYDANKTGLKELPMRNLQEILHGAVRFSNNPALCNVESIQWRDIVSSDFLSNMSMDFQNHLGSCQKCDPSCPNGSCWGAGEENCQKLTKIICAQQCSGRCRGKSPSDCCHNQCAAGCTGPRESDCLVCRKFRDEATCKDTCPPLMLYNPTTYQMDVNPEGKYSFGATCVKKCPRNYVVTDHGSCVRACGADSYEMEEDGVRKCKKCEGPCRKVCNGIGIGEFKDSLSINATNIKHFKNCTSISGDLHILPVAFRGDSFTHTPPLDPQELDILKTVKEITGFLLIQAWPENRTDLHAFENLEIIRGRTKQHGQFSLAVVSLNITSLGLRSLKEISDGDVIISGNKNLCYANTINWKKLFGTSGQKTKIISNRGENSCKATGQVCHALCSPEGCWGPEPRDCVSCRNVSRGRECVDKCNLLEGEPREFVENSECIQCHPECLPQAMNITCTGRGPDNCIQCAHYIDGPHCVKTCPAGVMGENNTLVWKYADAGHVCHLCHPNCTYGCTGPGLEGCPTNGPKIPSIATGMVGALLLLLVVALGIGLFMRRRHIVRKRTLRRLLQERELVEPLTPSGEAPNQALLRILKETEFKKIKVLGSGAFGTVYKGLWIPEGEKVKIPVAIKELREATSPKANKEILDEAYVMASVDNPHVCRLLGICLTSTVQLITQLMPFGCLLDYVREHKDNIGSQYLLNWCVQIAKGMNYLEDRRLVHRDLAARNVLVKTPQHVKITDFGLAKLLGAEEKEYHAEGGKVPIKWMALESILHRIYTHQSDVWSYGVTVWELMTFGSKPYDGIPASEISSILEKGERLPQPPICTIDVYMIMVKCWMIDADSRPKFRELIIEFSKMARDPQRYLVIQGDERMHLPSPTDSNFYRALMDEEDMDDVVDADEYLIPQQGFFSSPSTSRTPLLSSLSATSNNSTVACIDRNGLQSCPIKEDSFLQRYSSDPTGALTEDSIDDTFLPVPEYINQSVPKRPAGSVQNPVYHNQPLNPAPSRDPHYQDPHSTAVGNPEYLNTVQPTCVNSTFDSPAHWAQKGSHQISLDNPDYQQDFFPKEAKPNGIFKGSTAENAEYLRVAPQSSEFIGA
EGFR L858R/C797S, sequence (P00533 25-1210 C797S/L858R): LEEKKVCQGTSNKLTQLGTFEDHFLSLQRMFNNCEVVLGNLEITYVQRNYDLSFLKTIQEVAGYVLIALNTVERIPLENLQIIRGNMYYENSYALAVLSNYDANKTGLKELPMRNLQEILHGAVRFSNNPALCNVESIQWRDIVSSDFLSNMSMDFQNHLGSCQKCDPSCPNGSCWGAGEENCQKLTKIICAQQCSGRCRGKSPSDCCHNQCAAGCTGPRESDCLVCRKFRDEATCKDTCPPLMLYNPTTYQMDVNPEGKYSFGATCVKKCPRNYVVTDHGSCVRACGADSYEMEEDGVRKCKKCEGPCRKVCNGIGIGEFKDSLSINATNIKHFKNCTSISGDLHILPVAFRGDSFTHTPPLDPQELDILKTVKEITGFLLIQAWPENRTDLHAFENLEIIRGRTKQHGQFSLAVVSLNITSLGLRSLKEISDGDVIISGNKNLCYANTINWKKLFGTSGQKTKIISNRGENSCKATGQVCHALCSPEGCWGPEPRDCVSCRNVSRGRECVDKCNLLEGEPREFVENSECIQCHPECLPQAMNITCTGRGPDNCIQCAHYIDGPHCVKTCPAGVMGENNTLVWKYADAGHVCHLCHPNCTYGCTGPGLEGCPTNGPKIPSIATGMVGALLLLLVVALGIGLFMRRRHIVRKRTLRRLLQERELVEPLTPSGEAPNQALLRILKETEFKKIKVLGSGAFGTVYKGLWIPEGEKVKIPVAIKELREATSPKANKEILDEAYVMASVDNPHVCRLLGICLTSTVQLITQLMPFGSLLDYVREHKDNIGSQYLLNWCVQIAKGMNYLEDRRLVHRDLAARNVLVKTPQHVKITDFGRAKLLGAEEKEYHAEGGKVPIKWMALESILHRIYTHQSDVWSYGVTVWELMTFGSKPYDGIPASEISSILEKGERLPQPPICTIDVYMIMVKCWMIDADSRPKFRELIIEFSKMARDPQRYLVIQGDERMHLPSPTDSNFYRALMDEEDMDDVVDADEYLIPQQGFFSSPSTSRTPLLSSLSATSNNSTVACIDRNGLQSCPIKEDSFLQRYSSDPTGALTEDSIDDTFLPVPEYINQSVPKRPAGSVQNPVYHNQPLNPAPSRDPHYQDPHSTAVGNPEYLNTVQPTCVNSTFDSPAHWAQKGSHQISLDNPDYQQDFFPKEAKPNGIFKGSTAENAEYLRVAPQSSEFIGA

Row | SMILES | IC50 (EGFR del19/T790M/C797S; [1]) | IC50 (EGFR del19/T790M/C797S; [2]) | IC50 (EGFR del19/C797S; [3]) | IC50 (EGFR del19/C797S; [4]) | IC50 (EGFR wildtype (WT); [5]) | IC50 (EGFR wildtype (WT); [6]) | IC50 (EGFR L858R/C797S; [7]) | IC50 (EGFR L858R/T790M/C797S; [8]) | IC50 (EGFR L858R/T790M/C797S; [9]) | IC50 (EGFR L858R/C797S; [10]) | pIC50 (EGFR del19/T790M/C797S; Km ATP, read-out: IC50 del19/T790M/C797S, Km ATP) | pIC50 (EGFR del19/C797S; Km ATP, read-out: IC50 del19/C797S, Km ATP) | pIC50 (EGFR wildtype (WT); Km ATP, read-out: IC50 WT, Km ATP) | pIC50 (EGFR L858R/C797S; Km ATP, read-out: IC50 L858R/C797S, Km ATP) | pIC50 (EGFR L858R/T790M/C797S; Km ATP, read-out: IC50 L858R/T790M/C797S, Km ATP)
1 | Cc1cc(-c2cnc(Nc3ccnc(-c4cnn(S(=O)(=O)C5CC5)c4)n3)cc2N[C@H]2CC[C@@](C)(O)CC2)nn1C [Example 291, (1s,4s)-4-((2-((2-(1-(Cyclopropylsulfonyl)-1H-pyrazol-4-yl)pyrimidin-4-yl)amino)-5-(1,5-dimethyl-1H-pyrazol-3-yl)pyridin-4-yl)amino)-1-methylcyclohexan-1-ol] | 0.4 nM | 0.3 nM | 0.6 nM | 0.2 nM | 941 nM | 0.3 nM | 0.3 nM | 0.3 nM | 0.2 nM |  |  |  |  |  | 
2 | O=S(=O)(C1CC1)n1cc(-c2nccc(Nc3cc(NC4CCC(F)(CO)CC4)c(-c4cc5n(n4)CCCC5)cn3)n2)cn1 (stereo not shown) [Example 276, (4-((2-((2-(1-(Cyclopropylsulfonyl)-1H-pyrazol-4-yl)pyrimidin-4-yl)amino)-5-(4,5,6,7-tetrahydropyrazolo[1,5-a]pyridin-2-yl)pyridin-4-yl)amino)-1-fluorocyclohexyl)methanol] | 1.1 nM | 0.8 nM | 1.4 nM | 1.2 nM | > 10000 nM | 14.9 nM | 1.9 nM | 0.9 nM | 0.4 nM | 121 nM |  |  |  |  | 
3 | C=CCn1cc(-c2nccc(Nc3cc(N[C@H]4CC[C@@](C)(O)CC4)c(-c4ccn(C(F)F)n4)cn3)n2)cn1 [Example 116, (1s,4s)-4-((2-((2-(1-Allyl-1H-pyrazol-4-yl)pyrimidin-4-yl)amino)-5-(1-(difluoromethyl)-1H-pyrazol-3-yl)pyridin-4-yl)amino)-1-methylcyclohexan-1-ol] |  | 0.6 nM |  | 27.6 nM |  | 77.2 nM | 5 nM |  | 0.7 nM |  |  |  |  |  | 
4 | CN1CC(Nc2cc(Nc3ccnc(-c4cnn(S(=O)(=O)C5CC5)c4)n3)ncc2-c2ccn(C(F)F)n2)CCC1=O (stereo not shown) [Example 37, 5-((2-((2-(1-(Cyclopropylsulfonyl)-1H-pyrazol-4-yl)pyrimidin-4-yl)amino)-5-(1-(difluoromethyl)-1H-pyrazol-3-yl)pyridin-4-yl)amino)-1-methylpiperidin-2-one] | 1.4 nM | 1.2 nM | 16.6 nM | 12.1 nM | > 10000 nM | 108 nM | 5 nM | 6.6 nM | 0.7 nM | 264 nM |  |  |  |  | 
5 | O=S(=O)(C1CC1)n1cc(-c2nccc(Nc3cc(N[C@H]4CC[C@](O)(CO)CC4)c(-c4ccn(C(F)F)n4)cn3)n2)cn1 [Example 188, (1s,4s)-4-((2-((2-(1-(Cyclopropylsulfonyl)-1H-pyrazol-4-yl)pyrimidin-4-yl)amino)-5-(1-(difluoromethyl)-1H-pyrazol-3-yl)pyridin-4-yl)amino)-1-(hydroxymethyl)cyclohexan-1-ol] | 0.2 nM | 0.3 nM | 0.3 nM | 0.3 nM | > 10000 nM | 6.1 nM | 1.1 nM | 0.2 nM | 0.1 nM | 7.8 nM |  |  |  |  | 
6 | C[C@]1(O)CC[C@@H](Nc2cc(Nc3ccnc(-c4cnn(CC(F)(F)F)c4)n3)ncc2-c2ccn(C(F)F)n2)CC1 [Example 137, (1s,4s)-4-((5-(1-(Difluoromethyl)-1H-pyrazol-3-yl)-2-((2-(1-(2,2,2-trifluoroethyl)-1H-pyrazol-4-yl)pyrimidin-4-yl)amino)pyridin-4-yl)amino)-1-methylcyclohexan-1-ol] | 1.2 nM | 0.5 nM | 65.7 nM | 24.3 nM | > 10000 nM | 1780 nM | 35.9 nM | 0.9 nM | 0.2 nM | 269 nM |  |  |  |  | 
7 | O=S(=O)(C1CC1)n1cc(-c2nccc(Nc3cc(NC4CCCC(NCC(F)F)C4)c(-c4ccn(C(F)F)n4)cn3)n2)cn1 (stereo not shown) [Example 191, N^2-(2-(1-(Cyclopropylsulfonyl)-1H-pyrazol-4-yl)pyrimidin-4-yl)-N^4-(3-((2,2-difluoroethyl)amino)cyclohexyl)-5-(1-(difluoromethyl)-1H-pyrazol-3-yl)pyridine-2,4-diamine] | 1.7 nM |  | 35.5 nM |  | > 10000 nM |  |  | 2.4 nM |  | 1400 nM |  |  |  |  | 
8 | CCS(=O)(=O)n1cc(-c2nccc(Nc3cc(N[C@H]4CC[C@@](C)(O)CC4)c(-c4ccn(C(F)F)n4)cn3)n2)cn1 [Example 308, (1s,4s)-4-((5-(1-(Difluoromethyl)-1H-pyrazol-3-yl)-2-((2-(1-(ethylsulfonyl)-1H-pyrazol-4-yl)pyrimidin-4-yl)amino)pyridin-4-yl)amino)-1-methylcyclohexan-1-ol] | 0.4 nM | 0.4 nM | 0.4 nM | 0.5 nM | 3640 nM | 44.2 nM | 0.4 nM | 0.4 nM | 0.2 nM | 4.1 nM |  |  |  |  | 
9 | CN1CCC(n2ccc(-c3cnc(Nc4ccnc(-c5cnn(CC(F)F)c5)n4)cc3N[C@H]3CC[C@@](C)(O)CC3)n2)CC1 [Example 342, (1s,4s)-4-((2-((2-(1-(2,2-Difluoroethyl)-1H-pyrazol-4-yl)pyrimidin-4-yl)amino)-5-(1-(1-methylpiperidin-4-yl)-1H-pyrazol-3-yl)pyridin-4-yl)amino)-1-methylcyclohexan-1-ol] |  |  |  |  |  |  |  |  |  |  | 9.70 | 8.74 | 8.57 | 8.89 | 10.00
10 | CS(=O)(=O)c1ccn(-c2cnc(Nc3ccnc(-c4cnn(S(=O)(=O)C5CC5)c4)n3)cc2N[C@H]2CC[C@@](C)(O)CC2)n1 [Example 183, (1s,4s)-4-((2-((2-(1-(Cyclopropylsulfonyl)-1H-pyrazol-4-yl)pyrimidin-4-yl)amino)-5-(3-(methylsulfonyl)-1H-pyrazol-1-yl)pyridin-4-yl)amino)-1-methylcyclohexan-1-ol] |  | 0.8 nM |  | 42.8 nM |  | 624 nM | 37.1 nM |  | 0.6 nM |  |  |  |  |  | 
11 | O=S(=O)(C1CC1)n1cc(-c2nccc(Nc3cc(N[C@H]4CC[C@](O)(CO)CC4)c(-c4cc5n(n4)CCCC5)cn3)n2)cn1 [Example 275, (1s,4s)-4-((2-((2-(1-(Cyclopropylsulfonyl)-1H-pyrazol-4-yl)pyrimidin-4-yl)amino)-5-(4,5,6,7-tetrahydropyrazolo[1,5-a]pyridin-2-yl)pyridin-4-yl)amino)-1-(hydroxymethyl)cyclohexan-1-ol] | 0.6 nM | 0.4 nM | 0.6 nM | 0.4 nM | 2940 nM | 1.8 nM | 0.4 nM | 0.5 nM | 0.2 nM | 4.7 nM |  |  |  |  | 
12 | C[C@]1(O)CC[C@@H](Nc2cc(Nc3ccnc(-c4cnn(S(=O)(=O)C5CC5)c4)n3)ncc2-c2cc3n(n2)CCCC3)CC1 [Example 59, (1s,4s)-4-((2-((2-(1-(Cyclopropylsulfonyl)-1H-pyrazol-4-yl)pyrimidin-4-yl)amino)-5-(4,5,6,7-tetrahydropyrazolo[1,5-a]pyridin-2-yl)pyridin-4-yl)amino)-1-methylcyclohexan-1-ol] | 0.8 nM | 0.7 nM | 1.9 nM | 1 nM | 368 nM |  | 0.6 nM | 0.6 nM | 0.3 nM |  |  |  |  |  | 
